From patent US20080107787A1, “Anti-Diabetic Composition with High-Potency Sweetener” (THE COCA-COLA COMPANY, priority 2006, published 2008)

Legend:
[1] = format: physicochemical
Description: A solution of rebaudioside A (>97% pure by HPLC) was prepared in double distilled water (12.5 gm in 50 mL, 25% concentration) by stirring the mixture at 40° C. for 5 minutes. An amorphous form of rebaudioside A was formed by immediately using the clear solution for spray drying with the Lab-Plant spray drier SD-04 instrument (Lab-Plant Ltd., West Yorkshire, U.K.). The solution was fed through the feed pump into the nozzle atomizer which atomized it into a spray of droplets with the help of a constant flow of nitrogen/air. […] This dry powder (11-12 g, H2O 6.74%) was discharged continuously from the drying chamber and was collected in a bottle.

[2] = Rate of dissolution in H2O at 25° C. of rebaudioside A polymorph and amorphous forms; format: physicochemical
Description: The purification of rebaudioside A by crystallization as described above results in the formation of at least three different polymorphs: Form 1: a rebaudioside A hydrate; Form 2: an anhydrous rebaudioside A; and Form 3: a rebaudioside A solvate. In addition to the at least three polymorph forms of rebaudioside A, the purification of rebaudioside A may result in the formation of an amorphous form of rebaudioside A, Form 4. The aqueous organic solution and temperature of the purification process influence the resulting polymorph and amorphous forms in the substantially pure rebaudioside A composition. FIGS. 1-5 are exemplary powder x-ray diffraction (XRPD) scans of the polymorph and amorphous forms of rebaudioside A: Form 1 (hydrate), Form 2 (anhydrate), Form 3A (methanol solvate), Form 3B (ethanol solvate), and Form 4 (amorphous), respectively.

solubility in water at room temperature [1]	Rate of dissolution in H2O at 25° C. ([2]; graded Intermediate or High)	Rate of dissolution in H2O at 25° C. ([2]; graded Very low)	Substance
> 35.0%	High (>35%/5 %/5 minutes	–	rebaudioside A [Form 4]
–	–	Very low (<0.2%/60 %/60 minutes	rebaudioside A [Form 1]
–	High (>30%/5 %/5 minutes	–	rebaudioside A [Form 3]
–	Intermediate (<30%/5 %/5 minutes	–	rebaudioside A [Form 2]
